According to ChEMBL document CHEMBL1201862, “PubChem BioAssay data set” (2004):
The source made the active and inactive calls.

Experiments:
[1] = system: P388/ADR; test: cells; format: functional; conditions: Mus musculus
[2] = system: P388; test: cells; format: functional; conditions: Mus musculus
[3] = system: SN12K1; test: cells; format: functional; conditions: Homo sapiens
[4] = NIH3T3 cell viability loss – ATP luminescence, mouse fibroblasts, counter-screen, dose response (AID 2010); format: functional, cell-based;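 note: cells exposed to compound for about 90 hours before reading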
[5] = target: T1, Heat shock factor protein 1 (Mus musculus, UniProt P38532); test: enhancement of HSF1-driven luciferase signal – cell-based, NIH3T3, luminescence, dose retest, confirmation (AID 435004); format: functional;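 note: stress induced by proteasome inhibitor MG132 added 30 min after compound; luciferase reporter driven by HSF1 response element in NIH3T3 cells; actives raise luminescence as potentiators of the MG132 stress response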
T1 sequence (P38532 whole entry): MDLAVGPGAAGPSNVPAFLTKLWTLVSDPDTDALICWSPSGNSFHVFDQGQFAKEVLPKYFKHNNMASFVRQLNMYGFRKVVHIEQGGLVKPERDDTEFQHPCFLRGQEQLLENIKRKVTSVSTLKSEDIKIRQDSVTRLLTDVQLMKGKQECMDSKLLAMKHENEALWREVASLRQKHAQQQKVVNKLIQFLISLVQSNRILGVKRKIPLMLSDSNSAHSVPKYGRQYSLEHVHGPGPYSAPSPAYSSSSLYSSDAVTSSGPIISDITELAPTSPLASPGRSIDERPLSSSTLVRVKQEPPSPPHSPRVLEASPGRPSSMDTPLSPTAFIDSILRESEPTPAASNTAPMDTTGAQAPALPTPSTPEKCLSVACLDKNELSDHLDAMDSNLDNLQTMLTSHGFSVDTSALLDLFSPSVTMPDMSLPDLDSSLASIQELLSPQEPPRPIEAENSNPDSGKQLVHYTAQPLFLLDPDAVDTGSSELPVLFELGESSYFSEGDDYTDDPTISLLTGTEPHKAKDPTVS

[6] = Trypanosoma cruzi growth suppression in host cells – NIH3T3 host cells, beta-gal luminescence, confirmation (AID 2044); format: functional, cell-based;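 note: intracellular parasites grown in NIH/3T3 mouse fibroblasts as host cells; luminescent beta-galactosidase reporter signal from transgenic T. cruzi replicating inside host cells; inhibitors lower the luminescence signal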
[7] = target: Cytochrome P450 3A4 (Homo sapiens, UniProt P08684);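 note: CYP3A4 tested as one member of a cytochrome P450 panel screen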
[8] = target: Paired box protein Pax-8 (Homo sapiens, UniProt Q06710); test: PAX8 transcriptional activity inhibition in RMG-I – RMG-I cells, luciferase, cherry-pick, dose response (AID 687027); format: functional, cell-based;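 note: luciferase reporter driven by Pax8 target thyroperoxidase promoter measured by SteadyGlo luminescence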
[9] = target: Glyceraldehyde-3-phosphate dehydrogenase (Homo sapiens, UniProt P04406)
[10] = target: T2, Streptokinase A (Streptococcus pyogenes serotype M1, UniProt P10520); test: viability-normalized secreted streptokinase activity reduction – plasminogen activation absorbance, OD405, dose response (AID 1914); format: functional, Streptococcus pyogenes M1 GAS;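 note: secreted streptokinase activity via plasminogen activation per viability signal from cell pellet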
T2 sequence (P10520 whole entry): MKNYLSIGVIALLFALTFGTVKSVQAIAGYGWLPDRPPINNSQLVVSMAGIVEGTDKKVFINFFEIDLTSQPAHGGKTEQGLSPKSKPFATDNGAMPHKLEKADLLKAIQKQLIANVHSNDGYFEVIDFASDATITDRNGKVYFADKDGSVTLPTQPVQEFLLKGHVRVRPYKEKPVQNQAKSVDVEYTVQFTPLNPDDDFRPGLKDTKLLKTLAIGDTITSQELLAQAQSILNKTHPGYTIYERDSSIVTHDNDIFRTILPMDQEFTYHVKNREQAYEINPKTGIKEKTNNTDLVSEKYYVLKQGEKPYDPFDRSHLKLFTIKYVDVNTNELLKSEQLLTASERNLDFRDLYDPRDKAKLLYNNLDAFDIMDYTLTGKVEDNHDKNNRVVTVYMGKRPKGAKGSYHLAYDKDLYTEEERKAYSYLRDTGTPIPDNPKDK

[11] = system: Streptococcus; test: GAS UMAA2166 growth inhibition – luminescence, BacTiterGlo, counter-screen for streptokinase expression inhibitor project, dose response (AID 1915); format: functional, organism-based;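 note: potency for reduction of bacterial viability or growth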
[12] = system: Streptococcus sp. 'group A'; test: Streptococcus pyogenes SK(-)GAS viability under kanamycin – luminescence, BacTiterGlo, confirmation, counter-screen for streptokinase expression inhibitor project, dose response (AID 1900); format: functional, organism-based
[13] = NIH-3T3 fibroblast cytotoxicity, dose response, cytotoxicity control, cell-based, fluorescence, Alamar Blue, secondary assay (AID 2327); format: functional;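 note: NIH-3T3 mouse fibroblasts cultured with fluconazole at 8 µg/mL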
[14] = fluconazole-exposed Candida albicans growth modulators – fluorescence, retest, confirmation (AID 2467); format: functional, cell-based
[15] = luciferase reporter signal suppression in cells – H4 neuroglioma cells, luminescence, dose response (AID 1990); format: functional, cell-based
[16] = alpha-synuclein stem-loop luciferase translation blockers – H4 neuroglioma cells, luminescence, confirmation (AID 1988); format: functional, cell-based
[17] = Luminescence Cell-Based Dose Response HTS to Identify Inhibitors of 5'UTR Stem-Loop Driven Prion Protein mRNA Translation in H4 Neuroglioblastoma Cells. [Related pubchem assays: 1827 (Project Summary), 1813 (Primary HTS)]; format: functional

Sequence of Cytochrome P450 3A4 (P08684 whole entry): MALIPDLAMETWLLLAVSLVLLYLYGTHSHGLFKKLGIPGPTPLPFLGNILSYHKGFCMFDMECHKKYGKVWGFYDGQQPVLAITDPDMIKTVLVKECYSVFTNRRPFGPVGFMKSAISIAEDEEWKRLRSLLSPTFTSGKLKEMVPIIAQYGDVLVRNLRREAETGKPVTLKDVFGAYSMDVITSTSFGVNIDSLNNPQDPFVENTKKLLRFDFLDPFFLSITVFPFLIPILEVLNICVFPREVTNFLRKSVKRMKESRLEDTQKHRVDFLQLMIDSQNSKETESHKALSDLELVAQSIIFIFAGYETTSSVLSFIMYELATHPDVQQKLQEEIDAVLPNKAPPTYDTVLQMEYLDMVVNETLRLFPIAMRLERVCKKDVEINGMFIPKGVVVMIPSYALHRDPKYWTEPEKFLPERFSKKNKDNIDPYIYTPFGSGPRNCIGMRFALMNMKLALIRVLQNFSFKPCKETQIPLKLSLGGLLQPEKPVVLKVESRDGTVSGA
Sequence of Paired box protein Pax-8 (Q06710 whole entry): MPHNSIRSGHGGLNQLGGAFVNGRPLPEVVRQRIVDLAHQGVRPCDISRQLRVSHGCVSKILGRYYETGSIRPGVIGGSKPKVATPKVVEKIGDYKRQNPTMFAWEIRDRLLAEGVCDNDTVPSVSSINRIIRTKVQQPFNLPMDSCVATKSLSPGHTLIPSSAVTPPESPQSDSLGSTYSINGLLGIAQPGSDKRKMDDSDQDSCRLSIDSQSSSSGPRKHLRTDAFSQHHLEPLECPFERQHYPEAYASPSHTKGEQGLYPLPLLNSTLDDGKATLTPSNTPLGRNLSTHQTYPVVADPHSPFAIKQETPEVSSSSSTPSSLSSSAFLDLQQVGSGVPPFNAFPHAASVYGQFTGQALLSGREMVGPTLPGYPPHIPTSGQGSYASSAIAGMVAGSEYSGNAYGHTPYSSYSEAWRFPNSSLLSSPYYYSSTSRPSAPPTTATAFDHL
Sequence of Glyceraldehyde-3-phosphate dehydrogenase (P04406 whole entry): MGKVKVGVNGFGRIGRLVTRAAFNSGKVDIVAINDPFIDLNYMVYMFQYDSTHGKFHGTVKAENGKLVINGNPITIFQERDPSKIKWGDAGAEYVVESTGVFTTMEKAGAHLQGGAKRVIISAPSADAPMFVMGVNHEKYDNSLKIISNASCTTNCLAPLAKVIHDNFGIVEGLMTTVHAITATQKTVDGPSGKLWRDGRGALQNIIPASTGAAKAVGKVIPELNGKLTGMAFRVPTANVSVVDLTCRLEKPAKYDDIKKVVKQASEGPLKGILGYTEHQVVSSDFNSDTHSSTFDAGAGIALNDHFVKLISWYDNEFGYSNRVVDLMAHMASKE

C[C@@H]1[C@@H]2[C@@H](C=C3C4CCC5Cc6nc7c(nc6C[C@@]5(C)C4C[C@H](O)[C@]32CO)CC2CCC3C4=C[C@H]5O[C@@]6(OC(C)(CO)C[C@@H]6O)[C@H](C)[C@@]5(O)[C@]4(C)[C@@H](O)CC3[C@]2(C)C7)O[C@]12CCC(C)(C)O2 (stereo not given in full)
GI50 [1]: 0.0918 µM (active)
GI50 [2]: 0.000365 µM (active)
GI50 [3]: 0.000365 µM (active)

C=CCN(C(=O)CCc1ccccc1OC)c1nc(-c2ccc(S(C)(=O)=O)cc2)cs1
EC50 [4]: 5.05 µM (active)
EC50 [5]: > 260 µM (inactive)
EC50 [6]: 1.93 µM (active)

CN(C)CCNC(=O)c1cccc2ccc(-c3ccc(O)cc3)nc12
GI50 [3]: 0.637 µM (active)

COc1cc(CCCOC2OC(COC3OCC(O)C(O)C3O)C(O)C(O)C2O)cc2cc(-c3ccc4c(c3)OCO4)oc12 (stereo not given)
GI50 [1]: > 175 µM (inactive)
GI50 [2]: > 175 µM (inactive)
GI50 [3]: > 175 µM (inactive)

N#Cc1ccccc1-c1cncnc1NCc1cccnc1
AC50 [7]: 0.2 µM (inconclusive)

C[C@H]1CC(C)(C)C[C@@](OCCN2CCCCC2)(c2ccccc2)C1
AC50 [7]: 3.16 µM (inconclusive)

COC(=O)N1CCC2(CCCN(Cc3ccccc3OC)C2)CC1
AC50 [7]: 6.31 µM (inconclusive)

O=c1c(-c2ccccc2)nc2cnc(Nc3ccccc3)nc2n1C[C@H]1CCCO1
AC50 [7]: 12.6 µM (inconclusive)

C[C@@H]1CCCCO[C@H](CN(C)C(=O)c2ccccc2)[C@@H](C)CN([C@@H](C)CO)C(=O)c2cc(NC(=O)Nc3ccc(C(F)(F)F)cc3)ccc2O1
AC50 [8]: 3.72 µM (active)

C=C1C(=O)O[C@H]2[C@H]1[C@@H](OC(=O)C=C(C)C)CC1=C[C@@H](C[C@@]3(C)O[C@@H]23)OC1=O
GI50 [2]: 0.139 µM (active)
GI50 [3]: 6.46 µM (inactive)

COc1cccc(N2C(=O)C(Cl)=C(N3CCOCC3)C2=O)c1
IC50 [9]: > 50 µM (inconclusive)

O=NN(CCCl)C(=O)NC1CCCCC1 [LOMUSTINE]
GI50 [1]: 4.56 µM (inactive)
GI50 [2]: 4.23 µM (inactive)
GI50 [3]: 32.6 µM (inactive)

COc1ccc(/N=C2/S/C(=C\c3ccc(C)s3)C(=O)N2CC(C)C)cc1
AC50 [7]: 5.01 µM (inconclusive)

COc1cccc(C(=O)COC(=O)C(C)N2C(=O)C3C4C=CC(C4)C3C2=O)c1 (stereo not given)
EC50 [5]: > 260 µM (inactive)

CC(=O)OC1CC2(O)C(CCC3(C)C(c4ccc(=O)oc4)CCC32O)C2(C)C1=CC(O)C1OC12 (stereo not given)
GI50 [1]: 79.1 µM (inactive)
GI50 [2]: 46.1 µM (inactive)
GI50 [3]: 0.0424 µM (active)

O=C(CN1C(=O)NC(Cc2c[nH]c3ccccc23)C1=O)Nc1cccc(S(=O)(=O)N2CCOCC2)c1 (stereo not given)
EC50 [5]: > 260 µM (inactive)

FC(F)(F)c1cccc(NC(=S)N2CCCC2)c1
EC50 [10]: > 150 µM (not active)
EC50 [11]: > 150 µM (not active)
EC50 [12]: > 150 µM (not active)

O=C(O)c1ccc(-c2nc(-c3ccc(Cl)c(Cl)c3)cs2)cc1
EC50 [13]: > 160 µM (inactive)
EC50 [11]: 6.62 µM (active)
EC50 [12]: 3.54 µM (active)
EC50 [14]: 3.35 µM (active)

O=C1CC(C(=O)Nc2ccc(O)c(C(=O)O)c2)C(c2ccccc2)O1 (stereo not given)
IC50 [9]: > 100 µM (not active)

O=C(/C=C/c1ccco1)Nc1nc(-c2ccccn2)cs1
EC50 [10]: > 150 µM (not active)
EC50 [4]: 11.6 µM (active)
EC50 [11]: > 150 µM (not active)
EC50 [6]: 4.02 µM (active)
EC50 [12]: 18 µM (active)

O=P1(c2ccccc2)Nc2ccccc2SSc2ccccc2N1
GI50 [1]: 7.45 µM (inactive)
GI50 [2]: 0.839 µM (active)
GI50 [3]: 15.3 µM (inactive)

COC(=O)c1cn(CCOc2ccc(C)cc2)c2ccccc12
EC50 [5]: > 260 µM (inactive)

COc1ccc(CN(C)C[C@H]2Oc3ccc(NC(=O)Nc4ccc5c(c4)OCO5)cc3CC(=O)N([C@H](C)CO)C[C@H]2C)cc1
AC50 [8]: 62.3 µM (active)

C=CCC(O[Si](C)(C)C(C)(C)C)c1cc(O[Si](C)(C)C(C)(C)C)ccc1OC (stereo not given)
GI50 [1]: > 100 µM (inactive)
GI50 [2]: 22.2 µM (inactive)
GI50 [3]: > 100 µM (inactive)

CN(C)CCNC(=O)c1cc(Cl)cc2ccc(-c3ccccc3)nc12
GI50 [1]: 1.47 µM (inactive)
GI50 [2]: 0.476 µM (active)
GI50 [3]: 1.77 µM (inactive)

CCC(C)c1ccc(C2C3=C(O)c4ccccc4C3=Nc3nc(N)nc(O)c32)cc1 (stereo not given)
EC50 [10]: > 50 µM (not active)
EC50 [11]: 8.57 µM (active)
EC50 [12]: 3.11 µM (active)

COc1ccc(C)cc1S(=O)(=O)Nc1cnc2ccccc2c1
IC50 [9]: > 100 µM (not active)

CCOC(=O)N1CCN(C(=O)c2cnc3n(c2=O)CCS3)CC1
EC50 [5]: > 260 µM (inactive)

COc1cccc(-c2nnc(SCc3nc4ccccc4[nH]3)n2N)c1
EC50 [5]: > 260 µM (inactive)

CCCCOc1ccc(-c2nc(/C=N/c3nccs3)c(O)o2)cc1
EC50 [5]: > 260 µM (inactive)

CC(=O)Nc1ncnc2c1c(-c1ccc(Cl)cc1)nn2C(C)(C)C
EC50 [4]: 2.66 µM (active)
EC50 [13]: 36.2 µM (active)
EC50 [6]: 0.14 µM (active)
EC50 [15]: 11.4 µM (active)
EC50 [16]: 10.2 µM (active)
EC50 [17]: 13.3 µM (active)
EC50 [14]: 1.15 µM (active)

CC(C)[C@H](NC(N)=O)C(=O)NNC(=O)COc1cccc(C(F)(F)F)c1
EC50 [5]: > 260 µM (inactive)

Cc1ccc2c(O)nc(Nc3nc(C)cc(-c4ccccc4)n3)nc2c1
EC50 [10]: > 150 µM (not active)
EC50 [11]: 5.49 µM (active)
EC50 [12]: 7.26 µM (active)

Cc1ccc(-n2c(O)cc(=O)nc2SCC(=O)Nc2ccc3c4c(cccc24)CC3)cc1
EC50 [10]: > 150 µM (not active)
EC50 [11]: > 150 µM (not active)
EC50 [12]: 28.4 µM (active)

CN(Cc1ccccc1)C(=O)c1cc(-c2ccc(Br)cc2)on1
EC50 [5]: 110 µM (active)

CNC(=O)OCc1nc(SC2CCCCO2)n(C)c1COC(=O)NC (stereo not given)
GI50 [1]: > 100 µM (inactive)
GI50 [2]: > 100 µM (inactive)
GI50 [3]: > 100 µM (inactive)

C[C@H](CO)N1C[C@H](C)[C@H](CN(C)Cc2ccc3c(c2)OCO3)OCCCC[C@H](C)Oc2ccc(NS(=O)(=O)c3ccc(Cl)cc3)cc2C1=O
AC50 [8]: 9.86 µM (active)

Cc1ccc(-c2nnc(-c3ccc(NC(=O)c4cccs4)cc3)o2)cc1
AC50 [7]: 20 µM (inconclusive)

COc1ccc(C(=O)N2CC3(CC(c4ccc(Cl)cc4)=NO3)C[C@H]2C(=O)NCC(N)=O)cc1 (stereo not given in full)
AC50 [7]: 31.6 µM (inconclusive)

CN1C[C@@H]2[C@H](c3ccccc31)[C@H](CO)N2Cc1ccccc1Cl
AC50 [8]: 50.5 µM (active)

c1ccc(-c2csc3ncnc(N4CCc5ccccc5C4)c23)cc1
EC50 [10]: 4.83 µM (active)
EC50 [11]: 19.5 µM (active)
EC50 [12]: 5.31 µM (active)

O=C(O)[C@@H]1[C@@H](C(=O)NCc2ccncc2)[C@@H]2C=C[C@@H]1O2
AC50 [7]: 3.98 µM (inconclusive)

Cc1ccc(N2NC(=O)/C(=C/c3c(C)c(C#N)c4nc5ccccc5n4c3O)C2=O)cc1C
IC50 [9]: > 100 µM (not active)

COc1ccc(N[C@@H]2c3cc4c(cc3C(c3cc(OC)c(O)c(OC)c3)[C@H]3C(=O)OCC32)OCO4)cc1OC (stereo not given in full)
GI50 [1]: 0.269 µM (active)
GI50 [2]: < 0.01 µM (active)

CCn1nc(C)cc1C(=O)Sc1ccc(Cl)cc1Cl
EC50 [5]: 14.9 µM (active)

NC1=NC(=O)C(Cc2cccc(Cl)c2Cl)S1 (stereo not given)
EC50 [13]: 21.6 µM (inconclusive)
EC50 [14]: > 38 µM (not active)
